Measurements published in patent US11098026B2, “Fused bicyclic compounds, compositions and applications thereof” (IMPETIS BIOSCIENCES LIMITED, priority 2017, dated 2021).

target: T1, human GPR91 receptor (Homo sapiens, UniProt Q9BXA5); experiment: Human GPR91 calcium mobilization assay; format: cell-based; details: CHO-K1 NFAT cells over expressing human GPR91 receptor; Fluo4 AM; agonist sodium succinate; flex station; read-out: hGPR91 IC50 (μM)*
T1 construct: expressed in transfected cells; host or cells: CHO-K1 NFAT cells
T1 sequence (Q9BXA5 1-334): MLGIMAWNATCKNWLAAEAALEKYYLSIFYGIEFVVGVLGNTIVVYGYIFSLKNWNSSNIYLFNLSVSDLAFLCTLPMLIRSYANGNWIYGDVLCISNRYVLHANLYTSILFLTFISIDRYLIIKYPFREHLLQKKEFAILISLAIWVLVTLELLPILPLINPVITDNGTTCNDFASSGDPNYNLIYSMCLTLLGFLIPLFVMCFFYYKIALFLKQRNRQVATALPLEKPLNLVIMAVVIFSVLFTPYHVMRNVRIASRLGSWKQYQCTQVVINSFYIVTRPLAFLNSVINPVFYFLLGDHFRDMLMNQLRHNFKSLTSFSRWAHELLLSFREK
Procedure: Human GPR91 Calcium Mobilization Assay
To determine IC50 in CHO NFAT cells over expressing human GPR91 receptor calcium mobilization assay in flex station mode was carried out.
Grow CHO-K1 NFAT cells over expressing human GPR91 receptors in alpha MEM media were supplemented with 10% FBS (heat inactivated), 0.5 mg/ml of G-418, 0.5 mg/ml of Zeocin and 0.6 mg/ml of Hygromycin B.
The cells were seeded at least 21 hours before the experiment at the density of 25000/well in 96 well plate (Corning cat #no. 3603). It was made sure that cells were at least 95% confluent on the day of assay. No antibiotics were used for seeding purpose.
On the day of assay the media was discarded from plates and plates were washed with 100 μl of HBSS assay buffer. The plates were loaded with Fluo4 AM at 2 μM concentration. Pluronic F-127 dye was solubilized in calcium assay buffer containing 0.1% BSA, i.e., 20 μl dye+20 μl Pluronic F127 for 10 ml. Appropriate amounts of 100× probenecid was added to the loading mixture 1× final (100 μl per 10 ml). Total volume of dye loaded was made 100 μl. The plate was then wrapped in aluminium foil to protect from light and were incubated for 90 mins at 37 degrees in cell culture incubator. At the end of incubation the plates was washed again with 100 μl of HBSS buffer without BSA and 75 μl of HBSS buffer was added (without BSA) to the plate.
Further, 8 point-Dose response curve of the compounds of the present disclosure was prepared in 100% DMSO followed by 57.14-fold dilution to 1.75× in 1.75% DMSO in assay buffer. 100 μL of 1.75×NCE was added to the wells as shown below and incubated at room temp on orbital shaker at 300 rpm for 15 min. Flexstation [excitation @ 485 nm and emission @ 525 nm] for a total time of 60 seconds. 25 μL of 8× agonist (800 μM sodium succinate) was added to each well using the flexstation after establishing the baseline for 20 sec, Measurement—Max-Min over 60 sec. Using the above protocol results obtained are tabulate din the Table 1 below: […]

Row | SMILES | IC50
1 | O=C(O)Cc1cccc(Oc2ccc(Oc3cnc4ncn(C5COC5)c4c3)cc2C(F)(F)F)c1 [Compound A-29, 2-[3-[4-[1-(oxetan-3-yl)imidazo[4,5-b]pyridin-6-yl]oxy-2-(trifluoromethyl)phenoxy]phenyl]acetic acid] | > 10 µM
2 | O=C(O)Cc1cccc(Oc2ccc(Oc3ccc4ccn(C5COC5)c4n3)cc2C(F)(F)F)c1 [Compound A-30, 2-[3-[4-[1-(oxetan-3-yl)pyrrolo[2,3-b]pyridin-6-yl]oxy-2-(trifluoromethyl)phenoxy]phenyl]acetic acid] | > 10 µM
3 | O=C(O)Cc1cccc(Oc2ccc(Oc3ccc4cnc(C(=O)O)n4c3)cc2C(F)(F)F)c1 [Compound A-31, 6-[4-[3-(carboxymethyl)phenoxy]-3-(trifluoromethyl)phenoxy]imidazo[1,5-a]pyridine-3-carboxylic acid] | < 5 µM
4 | O=C(O)Cc1cccc(Oc2ccc(Oc3ccc4c(ccn4CC(=O)O)c3)cc2C(F)(F)F)c1 [Compound A-32, 2-[3-[4-[1-(carboxymethyl)indol-5-yl]oxy-2-(trifluoromethyl)phenoxy]phenyl]acetic acid] | > 10 µM
5 | O=C(O)Cc1cccc(Oc2ccc(Oc3ccc4ccn(CC(=O)O)c4c3)cc2C(F)(F)F)c1 [Compound A-33, 2-[3-[4-[1-(carboxymethyl)indol-6-yl]oxy-2-(trifluoromethyl)phenoxy]phenyl]acetic acid] | < 5 µM
6 | O=C(O)CCc1ccc(Oc2ccc(Oc3cccc4ccncc34)cc2C(F)(F)F)cc1 [Compound A-34, 3-[4-[4-(8-isoquinolyloxy)-2-(trifluoromethyl)phenoxy]phenyl]propanoic acid] | < 5 µM
7 | Cn1cc2cc(Oc3ccc(Oc4cccc(CCC(=O)O)c4)c(C(F)(F)F)c3)ccc2n1 [Compound A-35, 3-[3-[4-(2-methylindazol-5-yl)oxy-2-(trifluoromethyl)phenoxy]phenyl]propanoic acid] | < 5 µM
8 | O=C(O)Cc1cccc(Oc2ncc(Oc3cccc4ccncc34)cc2C(F)(F)F)c1 [Compound A-36, 2-[3-[[5-(8-isoquinolyloxy)-3-(trifluoromethyl)-2-pyridyl]oxy]phenyl]acetic acid] | < 5 µM
9 | O=C(O)CCc1cccc(Oc2ccc(Oc3cccc4nccn34)cc2C(F)(F)F)c1 [Compound A-37, 3-[3-[4-imidazo[1,2-a]pyridin-5-yloxy-2-(trifluoromethyl)phenoxy]phenyl]propanoic acid] | > 10 µM
10 | O=C(O)Cc1cccc(Oc2ccc(Oc3cccc4ccncc34)cc2C2CC2)c1 [Compound A-38, 2-[3-[2-cyclopropyl-4-(8-isoquinolyloxy)phenoxy]phenyl]acetic acid] | < 5 µM
11 | Cc1nc2ccc(Oc3ccc(Oc4cccc(CC(=O)O)c4)c(C4CC4)c3)cc2n1C1COC1 [Compound A-39, 2-[3-[2-cyclopropyl-4-[2-methyl-3-(oxetan-3-yl)benzimidazol-5-yl]oxy-phenoxy]phenyl]acetic acid] | < 5 µM
12 | O=C(O)Cc1cccc(Oc2ccc(Oc3cccc4ccnc(Cl)c34)cc2C(F)(F)F)c1 [Compound A-40, 2-[3-[4-[(1-chloro-8-isoquinolyl)oxy]-2-(trifluoromethyl)phenoxy]phenyl]acetic acid] | < 5 µM
13 | Cc1nccc2cccc(Oc3ccc(Oc4cccc(CC(=O)O)c4)c(C(F)(F)F)c3)c12 [Compound A-41, 2-[3-[4-[(1-methyl-8-isoquinolyl)oxy]-2-(trifluoromethyl)phenoxy]phenyl]acetic Acid] | < 5 µM
14 | O=C(O)CCc1cccc(Oc2ccc(Oc3cccc4ccncc34)cc2C(F)(F)F)c1 [Compound A-42, 3-[3-[4-(8-isoquinolyloxy)-2-(trifluoromethyl)phenoxy]phenyl]propanoic acid] | < 5 µM
15 | O=C(O)CCc1cccc(Oc2ccc(Oc3cccc4c3CNCC4)cc2C(F)(F)F)c1 [Compound A-43, 3-[3-[4-(1,2,3,4-tetrahydroisoquinolin-8-yloxy)-2-(trifluoromethyl)phenoxy]phenyl]propanoic acid] | > 10 µM
16 | O=C(O)CCc1cccc(Oc2ccc(OC3CCc4ccccc43)cc2C(F)(F)F)c1 (stereo not shown) [Compound A-44, 3-[3-[4-indan-1-yloxy-2-(trifluoromethyl)phenoxy]phenyl]propanoic acid] | 5 to 10 µM
17 | O=C(O)CCc1cccc(Oc2ccc(Oc3ccc4[nH]ncc4c3)cc2C(F)(F)F)c1 [Compound A-45, 3-[3-[4-(1H-indazol-5-yloxy)-2-(trifluoromethyl)phenoxy]phenyl]propanoic acid] | < 5 µM
18 | N#Cc1n[nH]c2ccc(Oc3ccc(Oc4cccc(CC(=O)O)c4)c(C(F)(F)F)c3)cc12 [Compound A-46, 2-[3-[4-[(3-cyano-1H-indazol-5-yl)oxy]-2-(trifluoromethyl)phenoxy]phenyl]acetic acid] | < 5 µM
19 | O=C(O)Cc1cccc(Oc2ccc(Oc3ccc4[nH]nc(C(=O)O)c4c3)cc2C(F)(F)F)c1 [Compound A-47, 5-[4-[3-(carboxymethyl)phenoxy]-3-(trifluoromethyl)phenoxy]-1H-indazole-3-carboxylic acid] | < 5 µM
20 | O=C(O)Cc1cccc(Oc2ccc(Oc3cccc4[nH]ncc34)cc2C(F)(F)F)c1 [Compound A-48, 2-[3-[4-(1H-indazol-4-yloxy)-2-(trifluoromethyl)phenoxy]phenyl]acetic acid] | < 5 µM

Continued, values first:

Row | IC50 | SMILES
21 | < 5 µM | O=C(O)Cc1cccc(Oc2ccc(Oc3cccc4cncn34)cc2C(F)(F)F)c1 [Compound B-1, 2-[3-[4-imidazo[1,5-a]pyridin-5-yloxy-2-(trifluoromethyl)phenoxy]phenyl]acetic acid]
22 | < 5 µM | O=C(O)Cc1cccc(Oc2ccc(Oc3cccn4cncc34)cc2C(F)(F)F)c1 [Compound B-2, 2-[3-[4-imidazo[1,5-a]pyridin-8-yloxy-2-(trifluoromethyl)phenoxy]phenyl]acetic acid]
23 | < 5 µM | Cc1ncc2cccc(Oc3ccc(Oc4cccc(CC(=O)O)c4)c(C(F)(F)F)c3)n12 [Compound B-3, 2-[3-[4-(3-methylimidazo[1,5-a]pyridin-5-yl)oxy-2-(trifluoromethyl)phenoxy]phenyl]acetic acid]
24 | 5 to 10 µM | Cc1ncc2c(Oc3ccc(Oc4cccc(CC(=O)O)c4)c(C(F)(F)F)c3)cccn12 [Compound B-4, 2-[3-[4-(3-methylimidazo[1,5-a]pyridin-8-yl)oxy-2-(trifluoromethyl)phenoxy]phenyl]acetic acid]
25 | 5 to 10 µM | O=C(O)Cc1cccc(Oc2ccc(Oc3ccc4cnc(C5COC5)n4c3)cc2C(F)(F)F)c1 [Compound B-5, 2-[3-[4-[3-(oxetan-3-yl)imidazo[1,5-a]pyridin-6-yl]oxy-2-(trifluoromethyl)phenoxy]phenyl]acetic acid]
26 | 5 to 10 µM | NC(=O)CCc1cccc(Oc2ccc(Oc3cccc4ccncc34)cc2C(F)(F)F)c1 [Compound C-2, 3-[3-[4-(8-isoquinolyloxy)-2-(trifluoromethyl)phenoxy]phenyl]propanamide]
27 | < 5 µM | NC(=O)Cc1cccc(Oc2ccc(Oc3cccc4ccncc34)cc2C(F)(F)F)c1 [Compound C-3, 2-[3-[4-(8-isoquinolyloxy)-2-(trifluoromethyl)phenoxy]phenyl]acetamide]
28 | > 10 µM | FC(F)(F)c1cc(Oc2cccc3ccncc23)ccc1Oc1cccc(CCc2nnc[nH]2)c1 [Compound D-1, 8-[4-[3-[2-(4H-1,2,4-triazol-3-yl)ethyl]phenoxy]-3-(trifluoromethyl)phenoxy]isoquinoline]
29 | 5 to 10 µM | FC(F)(F)c1cc(Oc2cccc3ccncc23)ccc1Oc1cccc(CCc2nnn[nH]2)c1 [Compound D-2, 8-[4-[3-[2-(1H-tetrazol-5-yl)ethyl]phenoxy]-3-(trifluoromethyl)phenoxy]isoquinoline]
30 | 5 to 10 µM | FC(F)(F)c1cc(Oc2cccc3ccncc23)ccc1Oc1cccc(Cc2nnn[nH]2)c1 [Compound D-3, 8-[4-[3-(1H-tetrazol-5-ylmethyl)phenoxy]-3-(trifluoromethyl)phenoxy]isoquinoline]
31 | > 10 µM | O=C(O)Cc1cccc(Oc2ccc(Oc3cccc4ccncc34)c(C(F)(F)F)c2)c1 [Compound E-1, 2-[3-[4-(8-isoquinolyloxy)-3-(trifluoromethyl)phenoxy]phenyl]acetic acid]
